Measured values reported in PMC7932521, “2-aminobenzimidazoles for leishmaniasis: From initial hit discovery to in vivo profiling” (PLoS Neglected Tropical Diseases, 2021).

Molecular target: T1, M2 (Homo sapiens, UniProt P08172)
T1 construct: expressed in transfected cells; host or cells: CHO
T1 sequence (P08172 1-466): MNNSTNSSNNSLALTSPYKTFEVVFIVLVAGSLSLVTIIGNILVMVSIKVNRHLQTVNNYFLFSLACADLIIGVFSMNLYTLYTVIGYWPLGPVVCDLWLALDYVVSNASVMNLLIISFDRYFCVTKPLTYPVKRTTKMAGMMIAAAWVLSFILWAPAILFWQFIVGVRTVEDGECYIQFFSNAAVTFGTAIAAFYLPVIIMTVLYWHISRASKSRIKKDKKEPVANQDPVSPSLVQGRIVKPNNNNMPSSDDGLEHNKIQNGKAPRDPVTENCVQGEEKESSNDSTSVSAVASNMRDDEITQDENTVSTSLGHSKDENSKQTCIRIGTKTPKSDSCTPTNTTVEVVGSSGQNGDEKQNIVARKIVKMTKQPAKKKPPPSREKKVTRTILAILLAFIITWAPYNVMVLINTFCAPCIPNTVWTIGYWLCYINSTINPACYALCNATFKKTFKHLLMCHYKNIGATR
Test: Bioprofiling 6pt Ag M2 CHO
Assay type: cell-based
Conditions: agonist readout
Experimental: (§1) The compounds were evaluated across a panel of 20 liability targets (37 functional assays) which included functional cell-based GPCRs and ion channels in both agonist and antagonist readout, measuring calcium flux and biochemical functional assays for nuclear hormone receptors and phosphodiesterases using TR-FRET format, in a 6 point 1:3 dilution dose series (maximum final concentration of 10 μM).

SMILES	EC50 [µM]
N#Cc1ccc2nc(NC(=O)c3ccc(C(F)(F)F)nc3)n(CC(F)(F)F)c2c1 [Compound 45, O=C(c1ccc(C(F)(F)F)nc1)Nc2nc(ccc(C#N)c3)c3n2CC(F)(F)F]	> 10
N#Cc1ccc2nc(NC(=O)c3ccnc(C(F)(F)F)c3)n(CC(F)(F)F)c2c1 [Compound 44, O=C(c1ccnc(C(F)(F)F)c1)Nc2nc(ccc(C#N)c3)c3n2CC(F)(F)F]	> 10
Cn1nccc1C(=O)Nc1nc2ccc(C#N)cc2n1CC(C)(C)C [Compound 29, O=C(Nc1n(CC(C)(C)C)c(c2n1)cc(C#N)cc2)c3n(C)ncc3]	> 10

Molecular target: T2, Beta1 (Homo sapiens, UniProt P08588)
T2 construct: expressed in transfected cells; host or cells: CHO
T2 sequence (P08588 whole entry): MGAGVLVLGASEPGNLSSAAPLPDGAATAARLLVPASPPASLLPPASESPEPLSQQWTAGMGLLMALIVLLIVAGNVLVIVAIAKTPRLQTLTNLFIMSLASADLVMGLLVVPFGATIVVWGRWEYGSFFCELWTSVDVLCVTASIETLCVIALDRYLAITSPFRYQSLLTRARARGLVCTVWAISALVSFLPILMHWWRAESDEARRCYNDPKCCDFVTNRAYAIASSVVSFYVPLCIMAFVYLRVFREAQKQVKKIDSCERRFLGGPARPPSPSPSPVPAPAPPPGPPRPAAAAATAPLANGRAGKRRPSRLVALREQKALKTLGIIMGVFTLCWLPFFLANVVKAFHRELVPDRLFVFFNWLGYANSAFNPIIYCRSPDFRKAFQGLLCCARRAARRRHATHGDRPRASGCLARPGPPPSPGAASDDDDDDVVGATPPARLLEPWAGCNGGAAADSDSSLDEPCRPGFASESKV
Test: Bioprofiling 6pt Antag Beta1 CHO
Assay type: cell-based
Conditions: antagonist readout vs Norepinephrine
Experimental: as §1

SMILES	IC50 [µM]
N#Cc1ccc2nc(NC(=O)c3ccc(C(F)(F)F)nc3)n(CC(F)(F)F)c2c1 [Compound 45, O=C(c1ccc(C(F)(F)F)nc1)Nc2nc(ccc(C#N)c3)c3n2CC(F)(F)F]	> 10
N#Cc1ccc2nc(NC(=O)c3ccnc(C(F)(F)F)c3)n(CC(F)(F)F)c2c1 [Compound 44, O=C(c1ccnc(C(F)(F)F)c1)Nc2nc(ccc(C#N)c3)c3n2CC(F)(F)F]	> 10
Cn1nccc1C(=O)Nc1nc2ccc(C#N)cc2n1CC(C)(C)C [Compound 29, O=C(Nc1n(CC(C)(C)C)c(c2n1)cc(C#N)cc2)c3n(C)ncc3]	> 10

Molecular target: T3, 5-HT2A (Homo sapiens, UniProt P28223)
T3 construct: expressed in transfected cells; host or cells: CHO
T3 sequence (P28223 whole entry): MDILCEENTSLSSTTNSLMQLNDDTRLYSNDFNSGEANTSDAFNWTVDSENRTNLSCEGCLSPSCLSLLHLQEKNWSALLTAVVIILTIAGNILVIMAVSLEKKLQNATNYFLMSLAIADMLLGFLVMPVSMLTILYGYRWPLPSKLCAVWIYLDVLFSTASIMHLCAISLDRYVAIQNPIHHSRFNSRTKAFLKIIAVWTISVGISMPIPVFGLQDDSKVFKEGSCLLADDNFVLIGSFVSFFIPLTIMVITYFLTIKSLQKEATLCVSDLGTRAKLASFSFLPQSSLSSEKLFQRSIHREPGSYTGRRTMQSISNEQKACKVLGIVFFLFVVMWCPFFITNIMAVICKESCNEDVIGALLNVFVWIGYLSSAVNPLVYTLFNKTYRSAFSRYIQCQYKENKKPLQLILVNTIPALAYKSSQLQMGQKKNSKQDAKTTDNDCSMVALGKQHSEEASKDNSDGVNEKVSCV
Test: Bioprofiling 6pt Antag 5-HT2A CHO
Assay type: cell-based
Conditions: antagonist readout vs Serotonin (5-HT)
Experimental: as §1

SMILES	IC50 [µM]
N#Cc1ccc2nc(NC(=O)c3ccc(C(F)(F)F)nc3)n(CC(F)(F)F)c2c1 [Compound 45, O=C(c1ccc(C(F)(F)F)nc1)Nc2nc(ccc(C#N)c3)c3n2CC(F)(F)F]	> 10
N#Cc1ccc2nc(NC(=O)c3ccnc(C(F)(F)F)c3)n(CC(F)(F)F)c2c1 [Compound 44, O=C(c1ccnc(C(F)(F)F)c1)Nc2nc(ccc(C#N)c3)c3n2CC(F)(F)F]	> 10
Cn1nccc1C(=O)Nc1nc2ccc(C#N)cc2n1CC(C)(C)C [Compound 29, O=C(Nc1n(CC(C)(C)C)c(c2n1)cc(C#N)cc2)c3n(C)ncc3]	> 10

Molecular target: T4, Opioid mu (Homo sapiens, UniProt P35372)
T4 construct: expressed in transfected cells; host or cells: CHO
T4 sequence (P35372 whole entry): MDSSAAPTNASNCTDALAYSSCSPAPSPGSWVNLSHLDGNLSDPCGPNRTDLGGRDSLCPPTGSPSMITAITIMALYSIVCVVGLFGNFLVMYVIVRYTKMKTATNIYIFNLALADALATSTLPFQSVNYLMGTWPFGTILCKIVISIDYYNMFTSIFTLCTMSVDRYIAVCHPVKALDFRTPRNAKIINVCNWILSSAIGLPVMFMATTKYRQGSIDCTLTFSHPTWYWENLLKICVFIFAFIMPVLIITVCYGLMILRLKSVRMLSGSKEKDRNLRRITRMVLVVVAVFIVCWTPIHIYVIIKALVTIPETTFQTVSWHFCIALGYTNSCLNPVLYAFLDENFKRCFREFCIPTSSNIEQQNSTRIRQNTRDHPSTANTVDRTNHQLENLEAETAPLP
Test: Bioprofiling 6pt Antag Opioid mu CHO
Assay type: cell-based
Conditions: antagonist readout vs DAMGO
Experimental: as §1

SMILES	IC50 [µM]
N#Cc1ccc2nc(NC(=O)c3ccc(C(F)(F)F)nc3)n(CC(F)(F)F)c2c1 [Compound 45, O=C(c1ccc(C(F)(F)F)nc1)Nc2nc(ccc(C#N)c3)c3n2CC(F)(F)F]	> 10
N#Cc1ccc2nc(NC(=O)c3ccnc(C(F)(F)F)c3)n(CC(F)(F)F)c2c1 [Compound 44, O=C(c1ccnc(C(F)(F)F)c1)Nc2nc(ccc(C#N)c3)c3n2CC(F)(F)F]	> 10
Cn1nccc1C(=O)Nc1nc2ccc(C#N)cc2n1CC(C)(C)C [Compound 29, O=C(Nc1n(CC(C)(C)C)c(c2n1)cc(C#N)cc2)c3n(C)ncc3]	> 10

Molecular target: T5, Alpha1A (Homo sapiens, UniProt P35348)
T5 construct: expressed in transfected cells; host or cells: CHO
T5 sequence (P35348 1-466): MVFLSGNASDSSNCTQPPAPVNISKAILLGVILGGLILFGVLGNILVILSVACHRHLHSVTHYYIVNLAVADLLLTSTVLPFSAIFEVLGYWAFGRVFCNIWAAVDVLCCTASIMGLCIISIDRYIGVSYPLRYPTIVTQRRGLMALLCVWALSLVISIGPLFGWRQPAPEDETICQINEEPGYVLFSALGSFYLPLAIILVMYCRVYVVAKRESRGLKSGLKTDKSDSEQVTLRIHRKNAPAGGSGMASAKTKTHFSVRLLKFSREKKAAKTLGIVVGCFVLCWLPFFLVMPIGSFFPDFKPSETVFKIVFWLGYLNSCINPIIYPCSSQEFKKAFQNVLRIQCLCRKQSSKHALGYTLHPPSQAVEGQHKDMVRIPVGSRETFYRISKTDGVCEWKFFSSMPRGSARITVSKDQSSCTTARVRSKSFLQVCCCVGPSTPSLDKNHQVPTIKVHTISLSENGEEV
Test: Bioprofiling 6pt Ag Alpha1A CHO
Assay type: cell-based
Conditions: agonist readout
Experimental: as §1

SMILES	EC50 [µM]
N#Cc1ccc2nc(NC(=O)c3ccc(C(F)(F)F)nc3)n(CC(F)(F)F)c2c1 [Compound 45, O=C(c1ccc(C(F)(F)F)nc1)Nc2nc(ccc(C#N)c3)c3n2CC(F)(F)F]	> 10
N#Cc1ccc2nc(NC(=O)c3ccnc(C(F)(F)F)c3)n(CC(F)(F)F)c2c1 [Compound 44, O=C(c1ccnc(C(F)(F)F)c1)Nc2nc(ccc(C#N)c3)c3n2CC(F)(F)F]	> 10
Cn1nccc1C(=O)Nc1nc2ccc(C#N)cc2n1CC(C)(C)C [Compound 29, O=C(Nc1n(CC(C)(C)C)c(c2n1)cc(C#N)cc2)c3n(C)ncc3]	> 10

Molecular target: T6, ETA (Homo sapiens, UniProt P25101)
T6 construct: expressed in transfected cells; host or cells: CHO
T6 sequence (P25101 21-427): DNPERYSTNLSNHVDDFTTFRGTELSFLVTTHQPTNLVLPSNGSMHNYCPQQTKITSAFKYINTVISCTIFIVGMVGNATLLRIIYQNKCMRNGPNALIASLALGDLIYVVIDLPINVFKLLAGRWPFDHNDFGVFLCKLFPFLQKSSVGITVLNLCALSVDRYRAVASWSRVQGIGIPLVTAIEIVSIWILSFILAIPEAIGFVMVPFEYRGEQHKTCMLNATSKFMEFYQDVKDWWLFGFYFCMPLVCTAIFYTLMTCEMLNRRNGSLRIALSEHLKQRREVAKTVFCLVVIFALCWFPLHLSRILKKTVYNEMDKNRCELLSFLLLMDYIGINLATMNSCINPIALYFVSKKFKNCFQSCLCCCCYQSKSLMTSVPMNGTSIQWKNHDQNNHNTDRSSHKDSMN
Test: Bioprofiling 6pt Ag ETA CHO
Assay type: cell-based
Conditions: agonist readout
Experimental: as §1

SMILES	EC50 [µM]
N#Cc1ccc2nc(NC(=O)c3ccc(C(F)(F)F)nc3)n(CC(F)(F)F)c2c1 [Compound 45, O=C(c1ccc(C(F)(F)F)nc1)Nc2nc(ccc(C#N)c3)c3n2CC(F)(F)F]	> 10
N#Cc1ccc2nc(NC(=O)c3ccnc(C(F)(F)F)c3)n(CC(F)(F)F)c2c1 [Compound 44, O=C(c1ccnc(C(F)(F)F)c1)Nc2nc(ccc(C#N)c3)c3n2CC(F)(F)F]	> 10
Cn1nccc1C(=O)Nc1nc2ccc(C#N)cc2n1CC(C)(C)C [Compound 29, O=C(Nc1n(CC(C)(C)C)c(c2n1)cc(C#N)cc2)c3n(C)ncc3]	> 10

Test system: not listed separately
Test: Human liver microsomal stability
Assay type: in vitro ADME
Conditions: liver microsomes, pH 7.4; human liver microsome; read-out: HLM Clint
Experimental: The metabolic stability of the compounds was evaluated in human (pool of 200 donors, XenoTech) and mouse liver microsomes (CD1 mouse, GIBCO). Test compounds were prepared at a concentration of 0.5 μM and incubated with 0.25 mg/mL liver microsomes at pH 7.4 and 37°C. The reaction was started by addition of NADPH at […]. Samples were taken at 0, 5, 10, 15, 20 and 30 minutes. The reaction was stopped by the addition of acetonitrile:methanol (1:1) containing an internal standard (tolbutamide at 50 nM). Compounds were quantified by liquid chromatography triple quadrupole mass spectrometry (LC-MS/MS). Peak area ratios (analyte/internal standard) were converted to % remaining using the area ratio at time 0 as 100%. Half-life (t1/2 = ln(2)/k) in minutes and intrinsic clearance (Clint = k x 1000/(0.25)) in μL/min/mg were calculated using a non-linear regression from % remaining versus incubation time. From this plot, the slope (k) was determined. The analysis conditions were: analytical column (Gemini C18, […], Phenomenex), electrospray ionization source (ESI) in positive and negative mode, mobile phase A (water + 0.1% formic acid) and B (acetonitrile + 0.1% formic acid), flow rate of 0.7 mL/min.

SMILES	microsomal CLint at 0.5 μM [µL/min/mg]
N#Cc1ccc2nc(NC(=O)c3ccnc(C(F)(F)F)c3)n(CC(F)(F)F)c2c1 [Compound 44, O=C(c1ccnc(C(F)(F)F)c1)Nc2nc(ccc(C#N)c3)c3n2CC(F)(F)F]	30
Cn1nccc1C(=O)Nc1nc2ccc(C#N)cc2n1CC(C)(C)C [Compound 29, O=C(Nc1n(CC(C)(C)C)c(c2n1)cc(C#N)cc2)c3n(C)ncc3]	25

Molecular target: T4, Opioid mu
Test: Bioprofiling 6pt Ag Opioid mu CHO
Assay type: cell-based
Conditions: agonist readout
Experimental: as §1

SMILES	EC50 [µM]
N#Cc1ccc2nc(NC(=O)c3ccc(C(F)(F)F)nc3)n(CC(F)(F)F)c2c1 [Compound 45, O=C(c1ccc(C(F)(F)F)nc1)Nc2nc(ccc(C#N)c3)c3n2CC(F)(F)F]	> 10
N#Cc1ccc2nc(NC(=O)c3ccnc(C(F)(F)F)c3)n(CC(F)(F)F)c2c1 [Compound 44, O=C(c1ccnc(C(F)(F)F)c1)Nc2nc(ccc(C#N)c3)c3n2CC(F)(F)F]	> 10
Cn1nccc1C(=O)Nc1nc2ccc(C#N)cc2n1CC(C)(C)C [Compound 29, O=C(Nc1n(CC(C)(C)C)c(c2n1)cc(C#N)cc2)c3n(C)ncc3]	> 10

Molecular target: T7, D2L (Homo sapiens, UniProt P14416)
T7 construct: expressed in transfected cells; host or cells: CHO
T7 sequence (P14416 whole entry): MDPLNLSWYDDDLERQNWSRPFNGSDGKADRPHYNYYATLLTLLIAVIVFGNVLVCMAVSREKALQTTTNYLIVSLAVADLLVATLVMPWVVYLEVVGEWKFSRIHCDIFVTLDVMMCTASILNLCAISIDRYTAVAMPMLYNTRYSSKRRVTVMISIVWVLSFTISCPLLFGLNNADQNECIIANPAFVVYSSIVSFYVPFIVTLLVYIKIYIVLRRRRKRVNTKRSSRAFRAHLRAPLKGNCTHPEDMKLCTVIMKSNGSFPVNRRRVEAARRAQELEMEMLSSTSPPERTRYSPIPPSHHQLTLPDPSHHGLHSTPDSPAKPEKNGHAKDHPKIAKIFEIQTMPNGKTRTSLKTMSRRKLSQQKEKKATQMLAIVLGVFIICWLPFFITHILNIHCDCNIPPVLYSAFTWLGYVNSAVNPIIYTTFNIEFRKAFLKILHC
Test: Bioprofiling 6pt Antag D2L CHO
Assay type: cell-based
Conditions: antagonist readout vs Quinpirole
Experimental: as §1

SMILES	IC50 [µM]
N#Cc1ccc2nc(NC(=O)c3ccc(C(F)(F)F)nc3)n(CC(F)(F)F)c2c1 [Compound 45, O=C(c1ccc(C(F)(F)F)nc1)Nc2nc(ccc(C#N)c3)c3n2CC(F)(F)F]	> 10
N#Cc1ccc2nc(NC(=O)c3ccnc(C(F)(F)F)c3)n(CC(F)(F)F)c2c1 [Compound 44, O=C(c1ccnc(C(F)(F)F)c1)Nc2nc(ccc(C#N)c3)c3n2CC(F)(F)F]	> 10
Cn1nccc1C(=O)Nc1nc2ccc(C#N)cc2n1CC(C)(C)C [Compound 29, O=C(Nc1n(CC(C)(C)C)c(c2n1)cc(C#N)cc2)c3n(C)ncc3]	> 10

Molecular target: PDE4B2 (Homo sapiens, UniProt Q07343)
Sequence (Q07343 1-564 isoform Q07343-2): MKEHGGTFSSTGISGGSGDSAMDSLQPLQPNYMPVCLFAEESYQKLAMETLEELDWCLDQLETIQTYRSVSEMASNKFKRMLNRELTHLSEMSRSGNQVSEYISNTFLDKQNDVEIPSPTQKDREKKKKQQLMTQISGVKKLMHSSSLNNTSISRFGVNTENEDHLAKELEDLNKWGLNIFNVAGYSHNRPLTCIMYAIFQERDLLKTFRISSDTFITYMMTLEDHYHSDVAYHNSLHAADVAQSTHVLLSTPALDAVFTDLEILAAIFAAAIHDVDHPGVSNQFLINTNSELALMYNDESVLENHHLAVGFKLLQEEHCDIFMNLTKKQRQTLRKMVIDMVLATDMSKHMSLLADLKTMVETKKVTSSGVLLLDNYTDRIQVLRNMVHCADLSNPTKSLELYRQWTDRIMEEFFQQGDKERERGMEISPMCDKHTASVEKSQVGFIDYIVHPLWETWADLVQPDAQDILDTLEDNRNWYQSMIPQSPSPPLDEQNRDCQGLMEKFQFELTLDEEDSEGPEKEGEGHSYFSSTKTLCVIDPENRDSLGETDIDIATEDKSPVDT
Test: Bioprofiling 6pt Antag PDE4B2
Assay type: biochemical
Conditions: substrate cAMP
Experimental: as §1

SMILES	IC50 [µM]
N#Cc1ccc2nc(NC(=O)c3ccc(C(F)(F)F)nc3)n(CC(F)(F)F)c2c1 [Compound 45, O=C(c1ccc(C(F)(F)F)nc1)Nc2nc(ccc(C#N)c3)c3n2CC(F)(F)F]	> 10
N#Cc1ccc2nc(NC(=O)c3ccnc(C(F)(F)F)c3)n(CC(F)(F)F)c2c1 [Compound 44, O=C(c1ccnc(C(F)(F)F)c1)Nc2nc(ccc(C#N)c3)c3n2CC(F)(F)F]	> 10
Cn1nccc1C(=O)Nc1nc2ccc(C#N)cc2n1CC(C)(C)C [Compound 29, O=C(Nc1n(CC(C)(C)C)c(c2n1)cc(C#N)cc2)c3n(C)ncc3]	> 10
